Test results taken from ChEMBL document CHEMBL3044541, “Control of crown rot-causing fungal pathogens of banana by inorganic salts and a surfactant” (Crop Prot, 2007).

What was measured:
Fusarium verticillioides [1] = assay: Antifungal activity against Fusarium verticillioides infected Cavendish banana fruit assessed as reduction in crown rot incubated for 15 min followed by compound washout measured after 1 week in presence of surfactant APSA 80 relative to control; type: functional; set-up: scale not given: the % may be the effect or the level left
Fusarium verticillioides [2] = assay: Antifungal activity against Fusarium verticillioides infected Cavendish banana fruit assessed as reduction in crown rot incubated for 15 min followed by compound washout measured after 1 week in absence of surfactant APSA 80 relative to control; type: functional; set-up: scale not given: the % may be the effect or the level left
Fusarium verticillioides [3] = assay: Antifungal activity against Fusarium verticillioides infected Cavendish banana fruit assessed as reduction in crown rot incubated for 15 min followed by compound washout measured after 3 weeks in presence of surfactant APSA 80 relative to control; type: functional; set-up: scale not given: the % may be the effect or the level left; settings: pooled result: one value given for 4 cell lines, strains, targets or settings
Fusarium verticillioides [4] = assay: Antifungal activity against Fusarium verticillioides infected Cavendish banana fruit assessed as reduction in crown rot incubated for 15 min followed by compound washout measured after 3 weeks in absence of surfactant APSA 80 relative to control; type: functional; set-up: scale not given: the % may be the effect or the level left; settings: pooled result: one value given for 4 cell lines, strains, targets or settings
Fusarium verticillioides [5] = assay: Antifungal activity against Fusarium verticillioides assessed as reduction in colony diameter at 10 to 160 g/l incubated for 15 min followed by compound washout measured after 7 days in absence of surfactant APSA 80 relative to control; type: functional; set-up: scale not given: the % may be the effect or the level left
Lasiodiplodia theobromae [6] = assay: Antifungal activity against Lasiodiplodia theobromae infected Cavendish banana fruit assessed as reduction in crown rot incubated for 15 min followed by compound washout measured after 1 week in presence of surfactant APSA 80 relative to control; type: functional; set-up: scale not given: the % may be the effect or the level left
Fusarium verticillioides [7] = assay: Antifungal activity against Fusarium verticillioides infected Cavendish banana fruit assessed as reduction in crown rot incubated for 15 min followed by compound washout measured after 2 weeks in presence of surfactant APSA 80 relative to control; type: functional; set-up: scale not given: the % may be the effect or the level left
Colletotrichum musae [8] = assay: Antifungal activity against Colletotrichum musae infected Cavendish banana fruit assessed as reduction in crown rot incubated for 15 min followed by compound washout measured after 2 weeks in presence of surfactant APSA 80 relative to control; type: functional; set-up: scale not given: the % may be the effect or the level left
Thielaviopsis paradoxa [9] = assay: Antifungal activity against Ceratocystis paradoxa infected Cavendish banana fruit assessed as reduction in crown rot incubated for 15 min followed by compound washout measured after 1 week in presence of surfactant APSA 80 relative to control; type: functional; set-up: scale not given: the % may be the effect or the level left
Lasiodiplodia theobromae [10] = assay: Growth inhibition of Lasiodiplodia theobromae assessed as concentration required for inhibition of mycelial growth incubated for 15 min followed by compound washout measured after 7 days in presence of surfactant APSA 80; type: functional
Thielaviopsis paradoxa [11] = assay: Antifungal activity against Ceratocystis paradoxa assessed as reduction in colony diameter at 10 to 160 g/l incubated for 15 min followed by compound washout measured after 7 days in absence of surfactant APSA 80 relative to control; type: functional; set-up: scale not given: the % may be the effect or the level left
Colletotrichum musae [12] = assay: Antifungal activity against Colletotrichum musae assessed as reduction in colony diameter at 10 to 160 g/l incubated for 15 min followed by compound washout measured after 7 days in absence of surfactant APSA 80 relative to control; type: functional; set-up: scale not given: the % may be the effect or the level left
Colletotrichum musae [13] = assay: Antifungal activity against Colletotrichum musae infected Cavendish banana fruit assessed as reduction in crown rot incubated for 15 min followed by compound washout measured after 2 weeks in absence of surfactant APSA 80 relative to control; type: functional; set-up: scale not given: the % may be the effect or the level left
Lasiodiplodia theobromae [14] = assay: Antifungal activity against Lasiodiplodia theobromae infected Cavendish banana fruit assessed as reduction in crown rot incubated for 15 min followed by compound washout measured after 2 weeks in presence of surfactant APSA 80 relative to control; type: functional; set-up: scale not given: the % may be the effect or the level left
Lasiodiplodia theobromae [15] = assay: Antifungal activity against Lasiodiplodia theobromae infected Cavendish banana fruit assessed as reduction in crown rot incubated for 15 min followed by compound washout measured after 2 weeks in absence of surfactant APSA 80 relative to control; type: functional; set-up: scale not given: the % may be the effect or the level left
Thielaviopsis paradoxa [16] = assay: Antifungal activity against Ceratocystis paradoxa assessed as reduction in colony diameter at 10 to 160 g/l incubated for 15 min followed by compound washout measured after 7 days in presence of surfactant APSA 80 relative to control; type: functional; set-up: scale not given: the % may be the effect or the level left
Colletotrichum musae [17] = assay: Antifungal activity against Colletotrichum musae infected Cavendish banana fruit assessed as reduction in crown rot incubated for 15 min followed by compound washout measured after 1 week in presence of surfactant APSA 80 relative to control; type: functional; set-up: scale not given: the % may be the effect or the level left
Colletotrichum musae [18] = assay: Antifungal activity against Colletotrichum musae assessed as reduction in colony diameter at 10 to 160 g/l incubated for 15 min followed by compound washout measured after 7 days in presence of surfactant APSA 80 relative to control; type: functional; set-up: scale not given: the % may be the effect or the level left
Colletotrichum musae [19] = assay: Antifungal activity against Colletotrichum musae infected Cavendish banana fruit assessed as reduction in crown rot incubated for 15 min followed by compound washout measured after 1 week in absence of surfactant APSA 80 relative to control; type: functional; set-up: scale not given: the % may be the effect or the level left
Lasiodiplodia theobromae [20] = assay: Antifungal activity against Lasiodiplodia theobromae assessed as reduction in colony diameter at 10 to 160 g/l incubated for 15 min followed by compound washout measured after 7 days in presence of surfactant APSA 80 relative to control; type: functional; set-up: scale not given: the % may be the effect or the level left
Fusarium verticillioides [21] = assay: Antifungal activity against Fusarium verticillioides infected Cavendish banana fruit assessed as reduction in crown rot incubated for 15 min followed by compound washout measured after 2 weeks in absence of surfactant APSA 80 relative to control; type: functional; set-up: scale not given: the % may be the effect or the level left
Fusarium verticillioides [22] = assay: Antifungal activity against Fusarium verticillioides assessed as reduction in colony diameter at 10 to 160 g/l incubated for 15 min followed by compound washout measured after 7 days in presence of surfactant APSA 80 relative to control; type: functional; set-up: scale not given: the % may be the effect or the level left
Lasiodiplodia theobromae [23] = assay: Growth inhibition of Lasiodiplodia theobromae assessed as concentration required for inhibition of mycelial growth incubated for 15 min followed by compound washout measured after 7 days in absence of surfactant APSA 80; type: functional
Lasiodiplodia theobromae [24] = assay: Antifungal activity against Lasiodiplodia theobromae infected Cavendish banana fruit assessed as reduction in crown rot incubated for 15 min followed by compound washout measured after 1 week in absence of surfactant APSA 80 relative to control; type: functional; set-up: scale not given: the % may be the effect or the level left
Thielaviopsis paradoxa [25] = assay: Antifungal activity against Ceratocystis paradoxa infected Cavendish banana fruit assessed as reduction in crown rot incubated for 15 min followed by compound washout measured after 1 week in absence of surfactant APSA 80 relative to control; type: functional; set-up: scale not given: the % may be the effect or the level left
Lasiodiplodia theobromae [26] = assay: Antifungal activity against Lasiodiplodia theobromae assessed as reduction in colony diameter at 10 to 160 g/l incubated for 15 min followed by compound washout measured after 7 days in absence of surfactant APSA 80 relative to control; type: functional; set-up: scale not given: the % may be the effect or the level left
Thielaviopsis paradoxa [27] = assay: Antifungal activity against Ceratocystis paradoxa infected Cavendish banana fruit assessed as reduction in crown rot incubated for 15 min followed by compound washout measured after 2 weeks in absence of surfactant APSA 80 relative to control; type: functional; set-up: scale not given: the % may be the effect or the level left
Thielaviopsis paradoxa [28] = assay: Antifungal activity against Ceratocystis paradoxa infected Cavendish banana fruit assessed as reduction in crown rot incubated for 15 min followed by compound washout measured after 2 weeks in presence of surfactant APSA 80 relative to control; type: functional; set-up: scale not given: the % may be the effect or the level left
Musa acuminata AAA Group [29] = assay: Phytotoxicity against Musa acuminata AAA Group (Cavendish banana) assessed as discoloration incubated for 15 min followed by compound washout measured after 1 to 3 weeks in presence of surfactant APSA 80 relative to control; type: organism-based; settings: in vivo
Colletotrichum musae [30] = assay: Growth inhibition of Colletotrichum musae assessed as concentration required for inhibition of mycelial growth incubated for 15 min followed by compound washout measured after 7 days in presence of surfactant APSA 80; type: functional
Musa acuminata AAA Group [31] = assay: Phytotoxicity against Musa acuminata AAA Group (Cavendish banana) assessed as skin burn incubated for 15 min followed by compound washout measured after 1 to 3 weeks in presence of surfactant APSA 80 relative to control; type: organism-based; settings: in vivo

SMILES: O=C([O-])O.[Na+] [SODIUM BICARBONATE]
- Activity (Fusarium verticillioides [1]): 0%
- Activity (Fusarium verticillioides [2]): 0%
- Activity (Fusarium verticillioides [3]): 12%
- Activity (Fusarium verticillioides [4]): 58%
- Activity (Fusarium verticillioides [5]): 0%
- Activity (Lasiodiplodia theobromae [6]): 0%
- Activity (Fusarium verticillioides [7]): 0%
- Activity (Colletotrichum musae [8]): 0%
- Activity (Thielaviopsis paradoxa [9]): 0%
- Activity (Lasiodiplodia theobromae [10]): 100 g/L
- Activity (Thielaviopsis paradoxa [11]): 36%
- Activity (Colletotrichum musae [12]): 18%
- Activity (Colletotrichum musae [13]): 25%
- Activity (Lasiodiplodia theobromae [14]): 0%
- Activity (Lasiodiplodia theobromae [15]): 25%
- Activity (Thielaviopsis paradoxa [16]): 76%
- Activity (Colletotrichum musae [17]): 0%
- Activity (Colletotrichum musae [18]): 80%
- Activity (Colletotrichum musae [19]): 0%
- Activity (Lasiodiplodia theobromae [20]): 72%
- Activity (Fusarium verticillioides [21]): 25%
- Activity (Fusarium verticillioides [22]): 50%
- Activity (Lasiodiplodia theobromae [23]): 150 g/L
- Activity (Lasiodiplodia theobromae [24]): 0%
- Activity (Thielaviopsis paradoxa [25]): 0%
- Activity (Lasiodiplodia theobromae [26]): 46%
- Activity (Thielaviopsis paradoxa [27]): 25%
- Activity (Thielaviopsis paradoxa [28]): 0%

SMILES: O=C([O-])[O-].[Na+].[Na+] [SODIUM CARBONATE]
- Activity (Fusarium verticillioides [1]): 0%
- Activity (Fusarium verticillioides [2]): 0%
- Activity (Musa acuminata AAA Group [29]): Toxic
- Activity (Fusarium verticillioides [3]): 65%
- Activity (Fusarium verticillioides [4]): 35%
- Activity (Fusarium verticillioides [5]): 29%
- Activity (Lasiodiplodia theobromae [6]): 0%
- Activity (Fusarium verticillioides [7]): 25%
- Activity (Colletotrichum musae [30]): 80 g/L
- Activity (Colletotrichum musae [8]): 25%
- Activity (Thielaviopsis paradoxa [9]): 0%
- Activity (Lasiodiplodia theobromae [10]): 40 g/L
- Activity (Thielaviopsis paradoxa [11]): 63%
- Activity (Colletotrichum musae [12]): 40%
- Activity (Musa acuminata AAA Group [31]): Toxic
- Activity (Colletotrichum musae [13]): 0%
- Activity (Lasiodiplodia theobromae [14]): 25%
- Activity (Lasiodiplodia theobromae [15]): 0%
- Activity (Thielaviopsis paradoxa [16]): 85%
- Activity (Colletotrichum musae [17]): 0%
- Activity (Colletotrichum musae [18]): 87%
- Activity (Colletotrichum musae [19]): 0%
- Activity (Lasiodiplodia theobromae [20]): 91%
- Activity (Fusarium verticillioides [21]): 0%
- Activity (Fusarium verticillioides [22]): 75%
- Activity (Lasiodiplodia theobromae [23]): 150 g/L
- Activity (Lasiodiplodia theobromae [24]): 0%
- Activity (Thielaviopsis paradoxa [25]): 0%
- Activity (Lasiodiplodia theobromae [26]): 54%
- Activity (Thielaviopsis paradoxa [27]): 0%
- Activity (Thielaviopsis paradoxa [28]): 25%
